43 compounds from patent US20210238139A1, “MODULATORS OF TRYPTOPHAN CATABOLISM” (E-Therapeutics PLC, priority 2018, published 2021) can be followed below.

Molecules are shown by their SMILES.

The first assay deals with SK-OV-3 cells. Kind of assay: Effect of compounds on tryptophan catabolism in SK-OV-3 cell line (inhibition of kynurenine production, LC-MS/MS). The settings on record: Homo sapiens, SK-OV-3, 24 h, SK-OV-3 cell line, 24 h incubation, kynurenine in supernatant by LC-MS/MS; read-out: IC50 Ranges (ic50 values for inhibition of Kynurenine production). The format is cell-based. The gist of the method: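 Kynurenine in supernatants quantified by LC-MS/MS after 24 h compound exposure (37 °C; top 30 μM, eight 3-fold steps, duplicate) in DMEM F-12 containing 6 mg/mL L-tryptophan. Cells pre-plated overnight in McCoy's 5A with 10% FBS. Viability checked in parallel by ATP luminescence.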
Usually IC50 stands for the point on the concentration scale where inhibition reaches its midpoint. `Cc1ccc(CN(C(=O)Nc2ccc(Cl)cc2)[C@H]2C[C@@H](F)C2)o1` [Compound 271, 3-(4-chlorophenyl)-1-(3-fluorocyclobutyl)-1-[(5-methyl-2-furyl)methyl]urea]: the half-inhibitory concentration (IC50) lay within 100 to 500 nM.

Regarding `O=C(Nc1ccc(F)c(F)c1)N(Cc1ccco1)C1CCCC1` [Compound 30, 1-cyclopentyl-3-(3,4-difluorophenyl)-1-(2-furylmethyl)urea], the concentration for half-maximal inhibition (IC50) was 100 to 500 nM.

As for `Cc1ccc(CN(C(=O)Nc2ccc(Cl)cc2)c2ccn(C)n2)o1` [Compound 226, 3-(4-chlorophenyl)-1-[(5-methyl-2-furyl)methyl]-1-(1-methylpyrazol-3-yl)urea], the IC50 was 100 to 500 nM.

For the compound `N#Cc1cc(CN(C(=O)Nc2ccc(F)c(F)c2)C2CCCC2)ccc1F` [Compound 52, 1-[(3-cyano-4-fluoro-phenyl)methyl]-1-cyclopentyl-3-(3,4-difluorophenyl)urea], the half-maximal inhibitory concentration (IC50) was less than 100 nM.

Turning to `N#Cc1cc(CN(C(=O)Nc2ccc(Cl)cc2)C2CCCC2)ccn1` [Compound 114, 3-(4-chlorophenyl)-1-[(2-cyano-4-pyridyl)methyl]-1-cyclopentyl-urea], the concentration for half-maximal inhibition (IC50) was 100 to 500 nM.

In the case of `Cc1ccc(NC(=O)N(Cc2ccc(C)o2)C2CCCC2)cn1` [Compound 246, 1-cyclopentyl-1-[(5-methyl-2-furyl)methyl]-3-(6-methyl-3-pyridyl)urea], the IC50 lay in the range of 500 to 1000 nM.

As for `Cc1ccc(CN(C(=O)Nc2ccc(Cl)cc2)c2cnnn2C)o1` [Compound 267, 3-(4-chlorophenyl)-1-[(5-methyl-2-furyl)methyl]-1-(3-methyltriazol-4-yl)urea], the half-maximal inhibitory concentration (IC50) was in the range of 100 to 500 nM.

`N#Cc1ccc(NC(=O)N(Cc2cc3ccccc3o2)C2CCC2)cc1` [Compound 234, 1-(benzofuran-2-ylmethyl)-3-(4-cyanophenyl)-1-cyclobutyl-urea]: the IC50 is less than 100 nM.

Turning to `Cc1ccc(CN(C(=O)Nc2ccc(Cl)cc2)c2nccn2C)o1` [Compound 182, 3-(4-chlorophenyl)-1-[(5-methyl-2-furyl)methyl]-1-(1-methylimidazol-2-yl) urea], the IC50 lay in the range of 100 to 500 nM.

Turning to `O=C(Nc1cc(Cl)nc(Cl)c1)N(Cc1cccs1)C1CCCC1` [Compound 10, 1-cyclopentyl-3-(2,6-dichloro-4-pyridyl)-1-(2-thienylmethyl)urea], the IC50 lay in the range of 1000 to 5000 nM.

Regarding `Cc1ccc(CN(C(=O)Nc2ccccc2)C2CC2)o1` [Compound 167, 1-cyclopropyl-1-[(5-methyl-2-furyl)methyl]-3-phenyl-urea], the IC50 lay within 1000 to 5000 nM.

Take `C#Cc1ccc(NC(=O)N(Cc2ccnc(C(F)(F)F)c2)C2CCC2)cc1` [Compound 153, 1-cyclobutyl-3-(4-ethynylphenyl)-1-[[2-(trifluoromethyl)-4-pyridyl]methyl]urea]: the half-maximal inhibitory concentration (IC50) is less than 100 nM.

As to `C=CCNC(=O)N(Cc1cccs1)C1CCCC1` [Compound 15, 3-allyl-1-cyclopentyl-1-(2-thienylmethyl)urea], the half-inhibitory concentration (IC50) was 1000 to 5000 nM.

For `COc1ccc(NC(=O)N(Cc2cccs2)C2CCCC2)cc1` [Compound 14, 1-cyclopentyl-3-(4-methoxyphenyl)-1-(2-thienylmethyl)urea], the IC50 was more than 5000 nM.

Take `Cc1ccc(CN(C(=O)Nc2ccc(-c3ccccc3)cc2)C2CCCC2)o1` [Compound 150, 1-cyclopentyl-1-[(5-methyl-2-furyl)methyl]-3-(4-phenylphenyl)urea]: the half-maximal inhibitory concentration (IC50) fell in the range of 100 to 500 nM.

As to `O=C(Nc1ccc(Cl)cc1)N(Cc1ccc2ncsc2c1)C1CCC1` [Compound 243, 1-(1,3-benzothiazol-6-ylmethyl)-3-(4-chlorophenyl)-1-cyclobutyl-urea], the IC50 is 100 to 500 nM.

As for `Cc1oncc1N(Cc1ccnc(C(F)(F)F)c1)C(=O)Nc1ccc(C#N)cc1` [Compound 288, 3-(4-cyanophenyl)-1-(5-methylisoxazol-4-yl)-1-[[2-(trifluoromethyl)-4-pyridyl]methyl]urea], the IC50 lay within 1000 to 5000 nM.

For the compound `O=C(Nc1ccc(C#CCO)cc1)N(Cc1ccnc(C(F)(F)F)c1)C1CCC1` [Compound 296, 1-cyclobutyl-3-[4-(3-hydroxyprop-1-ynyl)phenyl]-1-[[2-(trifluoromethyl)-4-pyridyl]methyl]urea], the concentration for half-maximal inhibition (IC50) was in the range of 100 to 500 nM.

For `Cc1ccc(CN(C(=O)Nc2ccc(O)cc2)C2CCCC2)o1` [Compound 303, 1-cyclopentyl-3-(4-hydroxyphenyl)-1-[(5-methyl-furyl)methyl]urea], the IC50 is more than 5000 nM.

Turning to `O=C(Nc1ccc(Cl)cc1)N(Cc1cccc2ncsc12)C1CCC1` [Compound 262, 1-(1,3-benzothiazol-7-ylmethyl)-3-(4-chlorophenyl)-1-cyclobutyl-urea], the IC50 is less than 100 nM.

Turning to `Cc1oncc1N(Cc1ccc2scnc2c1)C(=O)Nc1ccc(C#N)cc1` [Compound 281, 1-(1,3-benzothiazol-5-ylmethyl)-3-(4-cyanophenyl)-1-(5-methylisoxazol-4-yl)urea], the IC50 fell in the range of 1000 to 5000 nM.

For the compound `O=C(Nc1ccc(Cl)cc1)N(Cc1nc2c(s1)COCC2)C1CCCC1` [Compound 311, 3-(4-chlorophenyl)-1-cyclopentyl-1-(6,7-dihydro-4H-pyrano[4,3-d]thiazol-2-ylmethyl)urea], the IC50 fell in the range of 100 to 500 nM.

Consider `CC1(CN(C(=O)Nc2ccc(Cl)cc2)C2CCCC2)CCNCC1` [Compound 87, 3-(4-chlorophenyl)-1-cyclopentyl-1-[(4-methyl-4-piperidyl)methyl]urea], for which the half-inhibitory concentration (IC50) was more than 5000 nM.

`O=C(Nc1ccc(Cl)cc1)N(Cc1cnoc1)C1CCCC1` [Compound 63, 3-(4-chlorophenyl)-1-cyclopentyl-1-(isoxazol-4-ylmethyl)urea]: the IC50 was 1000 to 5000 nM.

Turning to `N#Cc1ccc(NC(=O)N(Cc2cccc3ncsc23)C2CCC2)cc1` [Compound 263, 1-(1,3-benzothiazol-7-ylmethyl)-3-(4-cyanophenyl)-1-cyclobutyl-urea], the 50% inhibitory concentration (IC50) lay within 100 to 500 nM.

`Cc1ccc(CN(C(=O)Nc2ccc(Cl)cc2)c2csnc2C)o1` [Compound 328, 3-(4-chlorophenyl)-1-[(5-methyl-2-furyl)methyl]-1-(3-methylisothiazol-4-yl)urea]: the IC50 is less than 100 nM.

As to `O=C(Nc1ccccc1F)N(Cc1cccs1)C1CCCC1` [Compound 54, 1-cyclopentyl-3-(2-fluorophenyl)-1-(2-thienylmethyl)urea], the IC50 lay in the range of 1000 to 5000 nM.

For the compound `Cc1ccc(CN(C(=O)Nc2ccc(Cl)cc2)c2cnoc2)o1` [Compound 305, 3-(4-chlorophenyl)-1-isoxazol-4-yl-1-[(5-methyl-2-furyl)methyl]urea], the IC50 is less than 100 nM.

Turning to `Cc1ccc(CN(C(=O)Nc2ccc(N3CCCC3=O)cc2)C2CCCC2)o1` [Compound 103, 1-cyclopentyl-1-[(5-methyl-2-furyl)methyl]-3-[4-(2-oxopyrrolidin-1-yl)phenyl]urea], the IC50 was 1000 to 5000 nM.

Turning to `O=C(Nc1ccc(Cl)cc1)N(Cc1ncccn1)C1CCCC1` [Compound 73, 3-(4-chlorophenyl)-1-cyclopentyl-1-(pyrimidin-2-ylmethyl)urea], the IC50 lay within 1000 to 5000 nM.

With `O=C(Nc1ccc(Cl)cc1)N(Cc1ccn2ccnc2n1)C1CCC1` [Compound 275, 3-(4-chlorophenyl)-1-cyclobutyl-1-(imidazo[1,2-a]pyrimidin-7-ylmethyl)urea], the IC50 lay in the range of 1000 to 5000 nM.

For the compound `O=C(Nc1ccc(F)c(F)c1)N(Cc1ccccn1)C1CCCCC1` [Compound 33, 1-cyclohexyl-3-(3,4-difluorophenyl)-1-(2-pyridylmethyl)urea], the IC50 was more than 5000 nM.

As for `CC(NC(=O)Nc1ccc(Cl)cc1)c1ccc(Cl)s1` (racemic) [Compound 199, 1-(4-chlorophenyl)-3-[1-(5-chloro-2-thienyl)ethyl]urea], the IC50 lay in the range of 500 to 1000 nM.

As to `CC(c1ccccn1)N(C(=O)Nc1ccc(Cl)cc1)C1CCCC1` (racemic) [Compound 174, 3-(4-chlorophenyl)-1-cyclopentyl-1-[1-(2-pyridyl)ethyl]urea], the IC50 fell in the range of 100 to 500 nM.

With `O=C(Nc1ccc(Cl)cc1)N(Cc1nc2ccccc2s1)C1CCC1` [Compound 248, 1-(1,3-benzothiazol-2-ylmethyl)-3-(4-chlorophenyl)-1-cyclobutyl-urea], the IC50 lay in the range of 100 to 500 nM.

Turning to `O=C(Nc1cccnc1)N(Cc1cccs1)C1CCCC1` [Compound 57, 1-cyclopentyl-3-(3-pyridyl)-1-(2-thienylmethyl)urea], the 50% inhibitory concentration (IC50) was more than 5000 nM.

Take `Cc1ccc(CN(C(=O)Nc2ccc(C#N)cc2)c2cnoc2)o1` [Compound 304, 3-(4-cyanophenyl)-1-isoxazol-4-yl-1-[(5-methyl-2-furyl)methyl]urea]: the concentration for half-maximal inhibition (IC50) was in the range of 100 to 500 nM.

Take `COc1ccc(NC(=O)N(Cc2ccc(C)o2)C2CCCC2)cn1` [Compound 253, 1-cyclopentyl-3-(6-methoxy-3-pyridyl)-1-[(5-methyl-2-furyl)methyl]urea]: the IC50 lay within 100 to 500 nM.

In the case of `C#Cc1ccc(NC(=O)N(Cc2cc3ccccc3o2)C2CCCC2)cc1` [Compound 131, 1-(benzofuran-2-ylmethyl)-1-cyclopentyl-3-(4-ethynylphenyl)urea], the IC50 was less than 100 nM.

As for `Cc1ccc(CN(C(=O)Nc2ccc(C#N)cc2)c2ccccn2)o1` [Compound 283, 3-(4-cyanophenyl)-1-[(5-methyl-2-furyl)methyl]-1-(2-pyridyl)urea], the 50% inhibitory concentration (IC50) is 1000 to 5000 nM.

`Cc1ccc(CN(C(=O)Nc2ccc(C#N)cc2)c2ccn(C)n2)o1` [Compound 221, 3-(4-cyanophenyl)-1-[(5-methyl-2-furyl)methyl]-1-(1-methylpyrazol-3-yl)urea]: the IC50 fell in the range of 500 to 1000 nM.

Consider `O=C(Nc1ccccc1)N(Cc1ccccn1)C1CCCCC1` [Compound 32, 1-cyclohexyl-3-phenyl-1-(2-pyridylmethyl)urea], for which the IC50 is more than 5000 nM.

Staying with this assay, now noted: SK-OV-3 cell line, 24 h incubation, kynurenine in supernatant by LC-MS/MS; read-out: IC50 Ranges (ic50 values for inhibition of Kynurenine production).
With `Cc1ccc(CN(C(=O)Nc2ccc(Cl)cc2)c2cncn2C)o1` [Compound 242, 3-(4-chlorophenyl)-1-[(5-methyl-2-furyl)methyl]-1-(3-methylimidazol-4-yl) urea], the IC50 lay within 100 to 500 nM.
